Data on one compound can be found in patent publication US6433015B1, “Method for reducing body weight” (IPR-Institute for Pharmaceutical Research AG, priority 1997, dated 2002).

The structures appear in SMILES notation.

Assay [1] in a line: 7-month study on body weight loss in 22 test persons administered creatine. The class given is in vivo, human. The method, then:
An experiment was carried out with 22 test persons in order to confirm the weight reducing effect of creatine using the dosage according to the invention. The test persons were instructed for the duration of the experiment not to change their day-to-day habits (diet and physical exercise). In order to find the optimal dosage the test persons were initially divided into three groups with a daily dosage of either 100 mg, 300 mg or 600 mg of creatine. […] The data are reported as so-called body mass index (BMI), which is calculated from the body weight in dilograms divided by the height in meters in square.

For assay [2] the following is noted: cited from earlier work.

Take `CN(CC(=O)O)C(=N)N` [creatine, N-Amidinosarcosine]: the “body weight, reported as body mass index (BMI)” value in assay [1] (7-month study, 22 test persons, after the 3 months dosage-finding period, single daily dose of 100 mg) is “a steady decrease of body weight occured”. Moreover, the “weight loss in dosage-finding period” value in assay [1] (groups with daily dosage of 100 mg, 300 mg or 600 mg of creatine, after 3 months, diet and physical exercise unchanged) was “the group with 100 mg had shown the most noticeable weight loss”. The body weight result in assay [2] (daily dosage of at least 15 g to 30 g (0.2 g to 0.4 g per kilogram body weight), physically active test persons, WO 94/02127, Sahelian, Gremion) is reported as “enhancement of body weight”. The fat mass result in assay [2] (high-dose creatine with high muscle strain, Sahelian 1997, Gremion 1995) is “the fat mass is decreased”.
